Reference: patent publication EP2087894B1, “FORMULATIONS COMPRISING PICEID ABLE TO PREVENT AND INHIBIT LIPID PEROXIDATION” (Glures S.R.L., priority 2008, dated 2009)

Experiments:
[1] = Differential calorimetric analysis (DSC) of the gel-to-fluid transition of liposomes; type: physicochemical; conditions: DMPC, DPPC, DSPC multilamellar liposomes at increasing stilbene concentrations
Protocol: (§1) As the antioxidant efficacy of both products is related to their partitioning between the water and lipid phase and to their position in the membrane bilayer, an investigation was carried out on the interactions of resveratrol and piceid in multilamellar liposomes of saturated L-alpha-phosphatidylcholine (PC) of various chain lengths (dimyristoyl, DMPC; dipalmitoyl, DPPC; distearoyl, DSPC) to determine: a) partition coefficients of the stilbenes between liposomes and water; b) modification of lipid bilayer organization; c) their position in the membrane using differential calorimetric analysis (DSC) and spin labelling (EPR).

[2] = Partition coefficients of the stilbenes between liposomes and water; type: physicochemical; conditions: for partitioning between water and lipid phase: liposomes / water
Protocol: as §1

[3] = Spin labelling (EPR) with n-SASL to find the position in the membrane; type: physicochemical; conditions: for location of the molecule in the bilayer: EPR spectra of n-SASL (positions 5, 7, 10, 12, 16) in DPPC liposomes; for position of the reactive hydroxyl group in the bilayer: EPR, DPPC liposomes
Protocol: as §1

[4] = Inhibition of linoleic acid peroxidation, followed by oxygen consumption after thermal initiation by ABIP; type: biochemical; conditions: 37 °C; for decrease in oxygen consumption (inhibition of lipid peroxidation): radical reaction thermally initiated by ABIP, after addition of antioxidant
Protocol: The effect of the antioxidants on lipid peroxidation was verified by measuring the quantity of oxygen consumed at 37 °C as a consequence of the radical reaction thermally initiated by ABIP.

[5] = Free radical neutralization followed spectrophotometrically (disappearance of the band at 515 nm); type: biochemical; conditions: radical neutralizing activity, spectrophotometric
From the text: (§2) With DHHP, the radical neutralizing activity was instead followed spectrophotometrically by measuring the initial rate (Vo) of the disappearance of its characteristic band at 515 nm. […] It was also required to verify whether the two products examined are able to react with the free radical initiators before the latter activate lipid peroxidation in the membrane.

[6] = Reaction with free radicals and radical initiators before they activate lipid peroxidation; type: biochemical
From the text: as §2

| hydrophobicity from partition coefficient measurements ([2]; between liposomes and water) | SMILES | DSC profiles of the gel-to-fluid state transition [1] | partitioning between water and lipid phase [2] | location of the molecule in the bilayer [3] | position of the reactive hydroxyl group in the bilayer [3] | decrease in oxygen consumption (inhibition of lipid peroxidation) [4] | initial rate (Vo) of the disappearance of its characteristic band at 515 nm [5] | reactivity with the free radicals and radical initiators under examination ([6]; in water, before initiators activate lipid peroxidation in the membrane) | effectiveness (quantitative evaluations) ([6]; piceid compared with resveratrol) | duration of the inhibitory effect on oxygen consumption ([4]; ABIP-initiated, compared with vitamin E and BHT) |
| --- | --- | --- | --- | --- | --- | --- | --- | --- | --- | --- |
| – | Oc1ccc(C=Cc2cc(O)cc(O)c2)cc1 [resveratrol] | broadened and shifted towards lower temperatures | sufficiently lipophilic to partition themselves almost exclusively in the lipid phase | located in the hydrophobic region of the bilayer | very close to the two double bonds of the polyunsaturated fatty acids (PUFA) | – | – | – | – | – |
| – | Cc1c(C)c2c(c(C)c1O)CC[C@@](C)(CCC[C@H](C)CCC[C@H](C)CCCC(C)C)O2 [vitamin E, alpha-tocopherol, reference compound] | – | – | – | more displaced towards the polar surface | brief initial period of strong inhibition | – | – | – | – |
| – | Cc1cc(C(C)(C)C)c(O)c(C(C)(C)C)c1 [BHT, 2,6-di-tert-butyl-4-methyl-phenol, reference compound] | – | – | – | located more deeply | brief initial period of strong inhibition | – | – | – | – |
| less hydrophobic than resveratrol | OC[C@H]1O[C@@H](Oc2cc(O)cc(/C=C/c3ccc(O)cc3)c2)[C@H](O)[C@@H](O)[C@@H]1O [piceid] | broadened and shifted towards lower temperatures | sufficiently lipophilic to partition themselves almost exclusively in the lipid phase | located in the hydrophobic region of the bilayer although piceid is closer to the hydrophilic region | very close to the two double bonds of the polyunsaturated fatty acids (PUFA) | steady decrease in oxygen consumption greater than that of vitamin E and BHT | comparable to those of BHT (although lower than those of vitamin E) | react with all the free radicals and radical initiators under examination | more effective than resveratrol | more prolonged effect over time |
